Source: paper PMC5036048, “Rational improvement of gp41-targeting HIV-1 fusion inhibitors: an innovatively designed Ile-Asp-Leu tail with alternative conformations” (Scientific Reports, 2016)
Ends that are not written are not given here.

How the values were obtained:
[1] = test system: HIV-1 92TH009 (subtype A/E, R5); experiment: Inhibition of HIV-1 clinical strain infection of M7 cells, p24 antigen ELISA; format: cell-based
Protocol: (§1) Inhibition activities of peptides on infection by HIV-1 clinical strains were determined as previously described. For inhibition of HIV-1 92TH009 (subtype A/E, R5) and 92UG024 (subtype D, X4) infection,100 TCID50 of the virus was added to 1 × 10^5/ml M7 cells in RPMI 1640 medium containing 10% FBS in the presence or absence of the test peptide overnight. Then, the culture supernatants were changed to fresh media. On the fourth day post-infection, culture supernatants were collected for detection of p24 antigen by ELISA. The percent inhibition of p24 production was calculated using the computer program Calcusyn.

[2] = test system: HIV-1 92UG024 (subtype D, X4); format: cell-based
Protocol: as §1

[3] = test system: B1206.W6P.ENV.A1; format: cell-based, HIV-1; conditions: subtype A; triplicate, repeated twice, mean ± SD; read-out: IC50 (nM) against B1206.W6P.ENV.A1
Description: (§2) Table 1 Inhibitory activities of CP, CP-IDL and T20 against HIV-1 pseudovirus. | column: IC50 (nM) of / CP; IC50 (nM) of / CP-IDL; IC50 (nM) of / T20

[4] = test system: BG505.W6M.ENV.C2; format: cell-based, HIV-1; conditions: subtype A; triplicate, repeated twice, mean ± SD; read-out: IC50 (nM) against BG505.W6M.ENV.C2
Description: as §2

[5] = test system: BJ412.W6M.ENV.S3; format: cell-based, HIV-1; conditions: subtype C; triplicate, repeated twice, mean ± SD; read-out: IC50 (nM) against BJ412.W6M.ENV.S3
Description: as §2

[6] = test system: CRF02_AG clone 242; format: cell-based, HIV-1; conditions: subtype AG, R5, Tier 1; triplicate, repeated twice, mean ± SD; read-out: IC50 (nM) against CRF02_AG clone 242
Description: as §2

[7] = test system: CRF02_AG clone 278; format: cell-based, HIV-1; conditions: subtype AG, R5, Tier 3; triplicate, repeated twice, mean ± SD; read-out: IC50 (nM) against CRF02_AG clone 278
Description: as §2

[8] = test system: CRF02_AG clone 33; format: cell-based, HIV-1; conditions: subtype AG, R5, Tier 3; triplicate, repeated twice, mean ± SD; read-out: IC50 (nM) against CRF02_AG clone 33
Description: as §2

[9] = test system: CRF02_AG/A1 clone 280; format: cell-based, HIV-1; conditions: subtype AG/A1, R5, Tier 2; triplicate, repeated twice, mean ± SD; read-out: IC50 (nM) against CRF02_AG/A1 clone 280
Description: as §2

[10] = test system: MJ412.W0M.ENV.B1; format: cell-based, HIV-1; conditions: subtype C; triplicate, repeated twice, mean ± SD; read-out: IC50 (nM) against MJ412.W0M.ENV.B1
Description: as §2

[11] = test system: SF162.LS; format: cell-based, HIV-1; conditions: subtype B, R5, Tier 1; triplicate, repeated twice, mean ± SD; read-out: IC50 (nM) against SF162.LS
Description: as §2

[12] = test system: ZM109F.PB4; format: cell-based, HIV-1; conditions: subtype C, R5; triplicate, repeated twice, mean ± SD; read-out: IC50 (nM) against ZM109F.PB4
Description: as §2

[13] = test system: pCH119 env; format: cell-based, HIV-1; conditions: subtype BC, R5, Tier 2; triplicate, repeated twice, mean ± SD; read-out: IC50 (nM) against pCH119 env
Description: as §2

[14] = test system: T20-resistant strain N42T, N43K; format: cell-based, HIV-1; conditions: triplicate, repeated twice, mean ± SD, read-out: IC50 (nM) against N42T, N43K
Description: (§3) Table 2 Inhibitory activities of CP, CP-IDL and T20 against T2635 or T20 resistant strains. | column: IC50 (nM) of / CP; IC50 (nM) of / CP-IDL; IC50 (nM) of / T20

[15] = test system: T2635-resistant strain K154Q; format: cell-based, HIV-1; conditions: triplicate, repeated twice, mean ± SD, read-out: IC50 (nM) against K154Q
Description: as §3

[16] = test system: T2635-resistant strain N113E; format: cell-based, HIV-1; conditions: triplicate, repeated twice, mean ± SD, read-out: IC50 (nM) against N113E
Description: as §3

[17] = test system: T2635-resistant strain N126K; format: cell-based, HIV-1; conditions: triplicate, repeated twice, mean ± SD, read-out: IC50 (nM) against N126K
Description: as §3

[18] = test system: T2635-resistant strain Q66R, N126K; format: cell-based, HIV-1; conditions: triplicate, repeated twice, mean ± SD, read-out: IC50 (nM) against Q66R, N126K
Description: as §3

[19] = test system: WT (T20-resistant strain panel); format: cell-based, HIV-1; conditions: triplicate, repeated twice, mean ± SD, read-out: IC50 (nM) against WT
Description: as §3

[20] = test system: WT (T2635-resistant strain panel); format: cell-based, HIV-1; conditions: triplicate, repeated twice, mean ± SD, read-out: IC50 (nM) against WT
Description: as §3

Sequence | IC50 [3] | IC50 [4] | IC50 [5] | IC50 [6] | IC50 [7] | IC50 [8] | IC50 [9] | IC50 [10] | IC50 [11] | IC50 [12] | IC50 [13] | IC50 [14] | IC50 [15] | IC50 [16] | IC50 [17] | IC50 [18] | IC50 [19] | IC50 [20] | further results
WEEWDKKIEEYTKKIEELIKKSQNQQ [CP] | > 2000 nM | 26.5 ± 8.6 nM | 51.9 ± 12 nM | 61.2 ± 13 nM | 44.4 ± 13 nM | 111 ± 4.8 nM | 213 ± 14 nM | 46 ± 3.2 nM | 78.8 ± 11 nM | 63.4 ± 4.6 nM | 42.3 ± 2.9 nM | > 500 nM | > 500 nM | 297 ± 22 nM | 462 ± 44 nM | > 500 nM | 181 ± 16 nM | 195 ± 12 nM | IC50 ([1]; M7 cells, 100 TCID50 virus, peptide overnight, p24 ELISA on day 4 post-infection): 281 nM; IC50 ([2]; M7 cells, 100 TCID50 virus, peptide overnight, p24 ELISA on day 4 post-infection, read-out: IC50, inhibition of HIV-1 92UG024 infection): 208 nM
WEEWDKKIEEYTKKIEELIKKSQNQQIDL [CP-IDL] | 74.5 ± 12 nM | 8.61 ± 2.8 nM | 1.21 ± 0.1 nM | 6.24 ± 3.7 nM | 8.59 ± 2.4 nM | 2.82 ± 0.5 nM | 5.62 ± 1.2 nM | 2.24 ± 1.3 nM | 1.51 ± 0.4 nM | 2.93 ± 1.2 nM | 5.79 ± 1.1 nM | 382 ± 82 nM | 9.79 ± 2.9 nM | 7.99 ± 3.5 nM | 46.4 ± 16 nM | 302 ± 34 nM | 8.67 ± 1.6 nM | 10.8 ± 1.2 nM | Activity stronger than that of T20 ([1]; 92TH009): 24 fold; Increase of potency over CP ([1]; 92TH009, ratio of IC50 to CP): 109 fold; Increase of potency over CP ([2]; 92UG024, ratio of IC50 to CP): 55 fold; Activity stronger than that of T20 ([2]; 92UG024, ratio of IC50 to T20): 12 fold
